Measurements reported in paper PMC7773212, “Dissecting the Mechanism of (R)-3-Hydroxybutyrate Dehydrogenase by Kinetic Isotope Effects, Protein Crystallography, and Computational Chemistry” (ACS Catalysis, 2020).
One block for each molecule: values may come before it.

Experiments:
AbHBDH [1] = biological target: T1, AbHBDH (Acinetobacter baumannii, UniProt A0A1E3M3N6); assay: isothermal titration calorimetry; type: binding; settings: 100 mM HEPES, pH 7.0, 25 °C; single-site model
T1 construct: gene AUO97_16470; homotetramer; landmarks: Gln95, Ser143, Asn145, Gly149, Phe150, Gly152, Lys153, Tyr156, Val189, Gln197
T1 sequence (A0A1E3M3N6 1-261): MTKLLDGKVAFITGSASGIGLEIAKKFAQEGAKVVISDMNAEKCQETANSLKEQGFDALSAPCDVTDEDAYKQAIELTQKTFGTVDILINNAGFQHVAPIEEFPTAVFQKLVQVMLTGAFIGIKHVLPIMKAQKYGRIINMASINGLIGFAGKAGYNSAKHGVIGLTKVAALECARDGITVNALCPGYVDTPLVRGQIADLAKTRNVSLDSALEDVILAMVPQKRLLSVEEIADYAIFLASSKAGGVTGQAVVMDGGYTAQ

PaHBDH [2] = biological target: T2, PaHBDH (Psychrobacter arcticus, UniProt Q4FRT2); assay: NADH fluorescence titration with enzyme; type: binding; settings: 100 mM HEPES, pH 7.0, 25 °C; 3 μM NADH
T2 construct: gene Psyc_1428; homotetramer; landmarks: Gln99, Ser148, His150, Lys158, Tyr161, Val194, Gln202

AbHBDH [3] = biological target: T1, AbHBDH; assay: X-ray crystal structure, […] Å; type: binding
PaHBDH [4] = biological target: T2, PaHBDH; assay: X-ray crystal structure, […] Å; type: binding
[5] = biological target: (R)-3-hydroxybutyrate dehydrogenase from Acinetobacter baumannii (Acinetobacter baumannii); assay: crystal structure; ternary complexes with NAD+ and acetoacetate or 3-oxovalerate; tetramers formed with crystallographic symmetry; crystals grown at room temperature
[6] = biological target: (R)-3-hydroxybutyrate dehydrogenase from Acinetobacter baumannii (Acinetobacter baumannii); assay: SEC; analytical gel filtration, Superdex 200 10/300 GL, room temperature, samples loaded at 1 mg/mL, 20 mM HEPES pH 8.0, MW standards
[7] = biological target: (R)-3-hydroxybutyrate dehydrogenase from Psychrobacter arcticus (Psychrobacter arcticus); assay: crystal structure; ternary complexes with NAD+ and acetoacetate or 3-oxovalerate; tetramers formed with crystallographic symmetry; crystals grown at room temperature
[8] = biological target: (R)-3-hydroxybutyrate dehydrogenase from Psychrobacter arcticus (Psychrobacter arcticus); assay: SEC; analytical gel filtration, Superdex 200 10/300 GL, room temperature, samples loaded at 1 mg/mL, 20 mM HEPES pH 8.0, MW standards
PaHBDH [9] = biological target: T2, PaHBDH; assay: X-ray crystal structure, […] Å; type: binding; settings: ternary dead-end complex with NAD+
[10] = ternary dead-end complex with acetoacetate (also with 3-oxovalerate)
[11] = ternary dead-end complex with NAD+

T2 sequence (Q4FRT2 entry or part of it): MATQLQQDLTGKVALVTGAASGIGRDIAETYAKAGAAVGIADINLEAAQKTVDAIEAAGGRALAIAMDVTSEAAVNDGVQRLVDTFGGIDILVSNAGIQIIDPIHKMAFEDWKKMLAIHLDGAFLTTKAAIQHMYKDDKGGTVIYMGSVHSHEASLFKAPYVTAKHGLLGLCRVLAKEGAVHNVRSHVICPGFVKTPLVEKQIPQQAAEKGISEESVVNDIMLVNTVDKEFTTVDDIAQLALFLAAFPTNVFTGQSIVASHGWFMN

Molecule: NC(=O)C1=CN([C@@H]2O[C@H](COP(=O)(O)OP(=O)(O)OC[C@H]3O[C@@H](n4cnc5c(N)ncnc54)[C@H](O)[C@@H]3O)[C@@H](O)[C@H]2O)C=CC1 [NADH]
- Kd (AbHBDH [1]): 14 ± 8 µM
- Kd (PaHBDH [2]): 7 ± 2 µM

Molecule: NC(=O)c1ccc[n+]([C@@H]2O[C@H](COP(=O)(O)OP(=O)(O)OC[C@H]3O[C@@H](n4cnc5c(N)ncnc54)[C@H](O)[C@@H]3O)[C@@H](O)[C@H]2O)c1 [NAD^+]
- X-ray crystal structure, 1.9 Å (AbHBDH [3]; [10]): crystal structures of the ternary complexes PaHBDH:NAD^+:AcAc, AbHBDH:NAD^+:AcAc
- X-ray crystal structure, 1.3 Å (PaHBDH [4]; [10]): crystal structures of the ternary complexes PaHBDH:NAD^+:AcAc, AbHBDH:NAD^+:AcAc

Molecule: CC(=O)CC(=O)O [acetoacetate]
- X-ray crystal structure, 1.9 Å (AbHBDH [3]; [11]): crystal structures of the ternary complexes PaHBDH:NAD^+:AcAc, AbHBDH:NAD^+:AcAc
- X-ray crystal structure, 1.3 Å (PaHBDH [4]; ternary dead-end complex with NAD+, two conformations of acetoacetate): crystal structures of the ternary complexes PaHBDH:NAD^+:AcAc, AbHBDH:NAD^+:AcAc

- stoichiometry N [5]: 4
- stoichiometry N [6]: 4
Molecule: (R)-3-hydroxybutyrate dehydrogenase from Acinetobacter baumannii (enzyme)

- stoichiometry N [7]: 4
- stoichiometry N [8]: 4
Molecule: (R)-3-hydroxybutyrate dehydrogenase from Psychrobacter arcticus (enzyme)

Molecule: CCC(=O)CC(=O)O [3-oxovalerate]
- X-ray crystal structure, 1.84 Å (PaHBDH [9]): Fobs – Fcalc maps show clear density for NAD^+ and either acetoacetate or 3-oxovalerate
- X-ray crystal structure, 1.9 Å (AbHBDH [3]; [11]): Fobs – Fcalc maps show clear density for NAD^+ and either acetoacetate or 3-oxovalerate
